In the supplement of paper PMC11061612:

Experiments:
[1] = compound: CC(C)n1c(=O)n(C)c2cnc3cc(F)c(-c4ccc(OCCCN5CCCCC5)nc4)cc3c21 [AZD1390]; details: max 0.3 µM
In short: (§1)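 Cancer cell lines were seeded in 1536-well plates in 7.5 μl DMEM/F12 or RPMI with 10% FBS, held 24 hours at 37°C and 5% CO2, then dosed for 72 hours (final DMSO typically 0.2%). Viability was read by CellTiter-Glo 2.0 luminescence and scaled between blank-well and DMSO-well means. The single-agent IC50 comes from dose responses fitted to a two-parameter logistic curve with a non-linear mixed effects model.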

[2] = compound: CC(=O)c1c(C)c2cnc(Nc3ccc(N4CCNCC4)cn3)nc2n(C2CCCC2)c1=O [Palbociclib]; details: max 10 µM
In short: as §1

[3] = compound: Nc1ccn([C@@H]2O[C@H](CO)[C@@H](O)C2(F)F)c(=O)n1 [Gemcitabine]; details: max 0.3 µM
In short: as §1

[4] = compound: COc1cccc2c1C(=O)c1c(O)c3c(c(O)c1C2=O)C[C@@](O)(C(=O)CO)C[C@@H]3O[C@H]1C[C@H](N)[C@H](O)[C@H](C)O1 [Doxorubicin]; details: max 1 µM
In short: as §1

[5] = compound: CC1(C)CCC(CN2CCN(c3ccc(C(=O)NS(=O)(=O)c4ccc(NCC5CCOCC5)c([N+](=O)[O-])c4)c(Oc4cnc5[nH]ccc5c4)c3)CC2)=C(c2ccc(Cl)cc2)C1 [Venetoclax]; details: max 1 µM
In short: as §1

[6] = compound: COc1nnc2ccc(N3CCC(c4ccc(OCCN5CCN(C)C(=O)[C@H]5C)cc4)CC3)nn12 [AZD5153]; details: max 1 µM
In short: as §1

[7] = compound: Cc1cc2ncnn2cc1Nc1ncc2c(n1)n(C1CCOCC1)c(=O)n2C [AZD7648]; details: max 10 µM
In short: as §1

[8] = compound: CN(CC[C@H](CSC1=CC=CC=C1)NC2=C(C=C(C=C2)S(=O)(=O)NC(=O)C3=CC=C(C=C3)N4CCC(CC4)[C@H](C5=CC=CC=C5C6=CC=C(C=C6)Cl)O)S(=O)(=O)C(F)(F)F)CCO [AZD4320]; details: max 1 µM
In short: as §1

[9] = compound: C[C@@H](c1ccc2nccn2c1)n1nnc2ncc(-c3cnn(C)c3)nc21 [Savolitinib]; details: max 1 µM
In short: as §1

[10] = compound: C=CCn1c(=O)c2cnc(Nc3ccc(N4CCN(C)CC4)cc3)nc2n1-c1cccc(C(C)(C)O)n1 [AZD1775]; details: max 3 µM
In short: as §1

[11] = compound: N#Cc1cnc(Nc2cc(NC[C@H]3CNCCO3)c(C(F)(F)F)cn2)cn1 [SRA737]; details: max 10 µM
In short: as §1

[12] = compound: COc1cc2ncnc(Nc3ccc(F)c(Cl)c3)c2cc1OCCCN1CCOCC1 [Gefitinib]; details: max 10 µM
In short: as §1

[13] = compound: NC1(c2ccc(-c3nc4ccn5c(=O)[nH]nc5c4cc3-c3ccccc3)cc2)CCC1 [MK-2206]; details: max 10 µM
In short: as §1

[14] = compound: C[C@@H](Oc1cc(-c2cnn(C3CCNCC3)c2)cnc1N)c1c(Cl)ccc(F)c1Cl [Crizotinib]; details: max 10 µM
In short: as §1

[15] = compound: C1CN(CCC1(C(=O)N[C@@H](CCO)C2=CC=C(C=C2)Cl)N)C3=NC=NC4=C3C=CN4 [AZD5363]; details: max 10 µM
In short: as §1

[16] = compound: COc1cccc(OCCCN)c1-c1cc(Nc2cnc(C#N)cn2)n[nH]1 [Prexasertib]; details: max 1 µM
In short: as §1

[17] = compound: Cc1nc(-c2cn3c(n2)-c2ccc(-c4cnn(C(C)(C)C(N)=O)c4)cc2OCC3)n(C(C)C)n1 [Taselisib]; details: max 10 µM
In short: as §1

[18] = compound: CC1=C(C(=CC=C1)Cl)NC(=O)C2=CN=C(S2)NC3=CC(=NC(=N3)C)N4CCN(CC4)CCO [Dasatinib]; details: max 2 µM
In short: as §1

[19] = compound: CC(=O)Nc1cccc(-n2c(=O)n(C3CC3)c(=O)c3c(Nc4ccc(I)cc4F)n(C)c(=O)c(C)c32)c1 [Trametinib]; details: max 1 µM
In short: as §1

[20] = compound: Cn1cnc2c(F)c(Nc3ccc(Br)cc3Cl)c(C(=O)NOCCO)cc21 [Selumetinib]; details: max 10 µM
In short: as §1

[21] = compound: COc1cc([C@@H]2c3cc4c(cc3[C@@H](O[C@@H]3O[C@@H]5CO[C@@H](C)O[C@H]5[C@H](O)[C@H]3O)[C@H]3COC(=O)[C@H]23)OCO4)cc(OC)c1O [Etoposide]; details: max 10 µM
In short: as §1

[22] = compound: O=C(Nc1ccc2[nH]nc(-c3ccncc3)c2c1)[C@@H]1CCN(CC(=O)N2CCN(c3ccc(-c4ncccn4)cc3)CC2)C1; details: max 5 µM
In short: as §1

[23] = compound: CN(C)CCCOc1ccc(-c2ccc3ncc4c(c3c2)n(C2CCOCC2)c(=O)n4C)cn1 [AZD0156]; details: max 3 µM
In short: as §1

[24] = compound: C[C@@H]1COCCN1C2=NC(=NC(=C2)C3(CC3)[S@](=N)(=O)C)C4=C5C=CNC5=NC=C4 [AZD6738]; details: max 10 µM
In short: as §1

[25] = compound: COc1cc(Nc2ncc3c(n2)-c2ccc(Cl)cc2C(c2c(F)cccc2OC)=NC3)ccc1C(=O)O [Alisertib]; details: max 10 µM
In short: as §1

[26] = compound: CC(=O)O[C@H]1C(=O)[C@@]2(C)[C@H]([C@H](OC(=O)c3ccccc3)[C@]3(O)C[C@H](OC(=O)[C@H](O)[C@@H](NC(=O)c4ccccc4)c4ccccc4)C(C)=C1C3(C)C)[C@]1(OC(C)=O)CO[C@@H]1C[C@@H]2O [Paclitaxel]; details: max 3 µM
In short: as §1

[27] = compound: CC1=CN2[C@@H](C1)C=NC3=CC(=C(C=C3C2=O)OC)OCCCCCOC4=C(C=C5C(=C4)N=C[C@@H]6CC(=CN6C5=O)C)OC [SG3199]; details: max 0.001 µM
In short: as §1

[28] = compound: Cc1c2c(nn1C)CSCc1cc(n(C)n1)CSc1cc(c3ccccc3c1)OCCCc1c(C(=O)O)n(C)c3c-2c(Cl)ccc13 [AZD5991]; details: max 1 µM
In short: as §1

[29] = compound: O=C(c1cc(Cc2n[nH]c(=O)c3ccccc23)ccc1F)N1CCN(C(=O)C2CC2)CC1 [Olaparib]; details: max 10 µM
In short: as §1

[30] = compound: O=c1[nH]cc(F)c(=O)[nH]1 [5-Fluorouracil]; details: max 20 µM
In short: as §1

[31] = compound: CS(=O)(=O)CCNCc1ccc(-c2ccc3ncnc(Nc4ccc(OCc5cccc(F)c5)c(Cl)c4)c3c2)o1 [Lapatinib]; details: max 10 µM
In short: as §1

[32] = compound: C1CC(C1)(C(=O)[O-])C(=O)[O-].N.N.[Pt+2] [Carboplatin]; details: max 10 µM
In short: as §1

[33] = compound: CCN(CCO)CCCOc1ccc2c(Nc3cc(CC(=O)Nc4cccc(F)c4)[nH]n3)ncnc2c1 [AZD2811]; details: max 1 µM
In short: as §1

[34] = compound: CCc1c2c(nc3ccc(O)cc13)-c1cc3c(c(=O)n1C2)COC(=O)[C@]3(O)CC [SN-38]; details: max 0.3 µM
In short: as §1

[35] = compound: C[C@@H](Nc1cc(F)cc(F)c1)c1cc(C(=O)N(C)C)cc2c(=O)cc(N3CCOCC3)oc12 [AZD8186]; details: max 10 µM
In short: as §1

Cell Line	IC50, cell viability 72 h [1] [nM]	IC50, cell viability 72 h [2] [µM]	IC50, cell viability 72 h [3] [nM]	IC50, cell viability 72 h [4] [nM]	IC50, cell viability 72 h [5] [nM]	IC50, cell viability 72 h [6] [nM]	IC50, cell viability 72 h [7] [µM]	IC50, cell viability 72 h [8] [nM]	IC50, cell viability 72 h [9] [nM]	IC50, cell viability 72 h [10] [nM]	IC50, cell viability 72 h [11] [µM]	IC50, cell viability 72 h [12] [µM]	IC50, cell viability 72 h [13] [µM]	IC50, cell viability 72 h [14] [µM]	IC50, cell viability 72 h [15] [µM]	IC50, cell viability 72 h [16] [nM]	IC50, cell viability 72 h [17] [µM]	IC50, cell viability 72 h [18] [nM]	IC50, cell viability 72 h [19] [nM]	IC50, cell viability 72 h [20] [µM]	IC50, cell viability 72 h [21] [µM]	IC50, cell viability 72 h [22] [µM]	IC50, cell viability 72 h [23] [nM]	IC50, cell viability 72 h [24] [µM]	IC50, cell viability 72 h [25] [nM]	IC50, cell viability 72 h [26] [nM]	IC50, cell viability 72 h [27] [nM]	IC50, cell viability 72 h [28] [nM]	IC50, cell viability 72 h [29] [µM]	IC50, cell viability 72 h [30] [µM]	IC50, cell viability 72 h [31] [µM]	IC50, cell viability 72 h [32] [µM]	IC50, cell viability 72 h [33] [nM]	IC50, cell viability 72 h [34] [nM]	IC50, cell viability 72 h [35] [µM]
BICR78 (Oral Cavity Carcinoma)	> 300	> 10	> 300	> 1000	> 1000	966	> 10	> 1000	> 1000	> 3000	> 10	> 10	> 10	> 10	> 10	238	5.01	> 2000	> 1000	> 10	> 10	> 5	> 3000	7.52	> 10000	49.3	> 1	> 1000	> 10	> 20	> 10	> 10	> 1000	28.4	> 10
CAL-39 (Other Solid Carcinomas)	> 300	> 10	25.2	> 1000	> 1000	287	> 10	> 1000	> 1000	651	> 10	0.737	> 10	4.69	> 10	> 1000	0.142	73.9	59	1.02	9.07	0.581	> 3000	> 10	420	6.79	> 1	> 1000	> 10	> 20	0.377	> 10	> 1000	22.2	4.77
CS1 (Chondrosarcoma)	> 300	> 10	> 300	641	> 1000	> 1000	> 10	> 1000	> 1000	2030	> 10	> 10	> 10	9.48	> 10	77.2	> 10	> 2000	> 1000	> 10	> 10	> 5	> 3000	> 10	4520	114	> 1	> 1000	> 10	> 20	> 10	> 10	> 1000	18.6	> 10
D-283MED (Other Solid Carcinomas)	> 300	> 10	3.45	200	> 1000	60.8	> 10	425	> 1000	425	0.869	> 10	> 10	2.73	8.85	11	3.99	> 2000	> 1000	> 10	0.583	> 5	> 3000	0.302	547	< 3	> 1	> 1000	> 10	7.43	6.25	> 10	450	7.3	8.4
D-392MG (Glioblastoma)	> 300	> 10	> 300	> 1000	> 1000	> 1000	> 10	> 1000	> 1000	> 3000	> 10	> 10	> 10	> 10	> 10	775	> 10	> 2000	> 1000	> 10	> 10	> 5	> 3000	> 10	> 10000	245	> 1	> 1000	> 10	> 20	> 10	> 10	> 1000	> 300	> 10
